Assay in all cases: NCI tumour cell line growth inhibition, 48 h
Test [1] relates to NCI-H23 lung.
The subject of test [2] is HCT-116 colon.
The subject of test [3] is T-47D breast.
Test [4] has as its system TK-10 renal.
Test [5] deals with HS 578T breast.
Test [6] has as its system SN12C renal.
In test [7] the test system is NCI-H226 lung.
Test [8] has as its system COLO 205 colon.
Test [9] has as its system SNB-75 CNS.
For test [10], the system named is A549 NSCLC.
In test [11] the test system is MALME-3M melanoma.
For test [12], the system named is KM12 colon.
In test [13] the test system is HCC-2998 colon.

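Five compound concentrations were applied to cells in 96-well plates for 48 hours; endpoints were derived by simple linear interpolation of the resulting dose-response curve. GI50: concentration for 50% inhibition of growth. TGI marks complete inhibition of growth.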

Turning to `C=CCN1CCC(OC(=O)C(O)(/C=C\CC)C2CCCC2)CC1` (stereo not drawn), the TGI in test [1], in test [2], in test [3], in [4], in [5] and in [6] was over 100 µM throughout. For the same compound, the TGI in test [7], in [8], in [9], in test [10] and in test [11] was over 100 µM each time.
Consider `N#CC12COC3(CCCCC3C1(C#N)C#N)OC2=N` (stereo not drawn), for which the TGI in test [1] amounted to 37.2 µM; in test [2], 25.1 µM; in [3] it was 26.7 µM; in test [4], 31.6 µM; in test [5], 44.7 µM; in [6] it was 24.8 µM. For the same compound, the TGI turned out to be 71.2 µM in test [7]; 19.2 µM in [8]; 35.2 µM in test [9]; 66.8 µM in test [10]; 35.6 µM in [11].
With `CSC1=N/C(=C\c2cccs2)C(=O)N1CN1CCOCC1`, the TGI in test [1], in test [2], in test [4], in [5], in test [12] and in test [6] was over 100 µM throughout. Besides, the TGI in [7], in test [8], in test [9], in test [10] and in [11] was over 100 µM throughout.
For `CC(=O)OCC1C(C(C)OC(C)=O)CCC2C1CCC1(C)C(OC(C)=O)CCC21` (stereo not drawn), the TGI in test [1] was 76.1 µM; in test [2] it was 29.2 µM; in test [3], 65.7 µM; in test [4], over 100 µM; in test [12], 31.3 µM; in test [6], 34.8 µM. Also, the TGI stood at 33.6 µM in [7], 33.5 µM in test [13], 39.4 µM in [10] and 37 µM in test [11].
As for `O=C(ON=c1c2ccccc2ccc2ccccc12)c1cc([N+](=O)[O-])cc([N+](=O)[O-])c1`, the TGI in test [1], in test [2], in [4], in test [5], in test [12] and in test [6] was over 100 µM throughout. In addition, the TGI is over 100 µM in [7]; over 100 µM in test [13]; over 100 µM in test [8]; over 100 µM in test [9]; over 100 µM in test [10]; 77.4 µM in test [11].
In the case of `C1CNCCN2CCCNCCN(C1)CC2`, the TGI in test [1], in test [2], in [3], in test [4], in test [5] and in [12] was over 100 µM in each case. Moreover, the TGI in [6], in [7], in [8], in [9], in [10] and in test [11] was over 100 µM in each case.
For `C=CCn1c2ccccc2c2c(C)c3cnccc3c(C)c21`, the TGI in test [1] is 45.3 µM; in test [2], 46.9 µM; in [12], 83.9 µM; in [6], over 66.2 µM; in test [7], 40.3 µM; in test [13] it was 104 µM. The TGI in [8] is 72.5 µM; in test [9], 57.4 µM; in test [10], over 97.6 µM; in test [11], 62 µM.
In the case of `CC(/C=C/c1ncccc1OCCCCCC(=O)O)=N\NC1=NCCN1`, the TGI in [2], in test [4], in test [12], in test [6], in [7] and in test [13] was over 100 µM in each case. Further, the TGI in [8], in [10] and in [11] was over 100 µM each time.
For `O=C(N=Nc1ccc([N+](=O)[O-])cc1)NNc1ccc([N+](=O)[O-])cc1`, the TGI in test [1] came out at 44.7 µM; in [2] it was 30.3 µM; in test [3], 25.2 µM; in [4] it was 53.6 µM; in test [6] it was 40.5 µM; in test [7] it was 51 µM. In addition, the TGI in test [13] is 27.3 µM; in test [9], 79.9 µM; in test [10], over 100 µM; in test [11] it was 53.1 µM.
Take `CN(C)C(=S)Nc1nnc(NC23CC4CC(CC(C4)C2)C3)s1`: the TGI was 33 µM in [2]; over 100 µM in test [4]; 46 µM in test [12]; 38.1 µM in test [6]; 38.4 µM in test [7]; 35.5 µM in test [13]. Further, the TGI came out at 44.1 µM in test [8], 36.5 µM in test [10] and 53.3 µM in test [11].
On to `Nn1c(CNc2ccc(-c3nnc(Nc4ccc(Cl)cc4)n3N)cc2)nnc1Nc1ccc(Cl)cc1`, for which the TGI in [1], in [2], in [4], in [12], in test [6] and in [7] was over 100 µM in each case. For the same compound, the TGI in test [13], in test [8], in test [9], in [10] and in [11] was over 100 µM throughout.
On to `CCCCCCc1nn2c(-c3ccc(C)cc3)nnc2s1`, for which the TGI in [1], in test [2], in [3], in test [4], in [5] and in test [12] was over 100 µM each time. The TGI in [6], in [8], in test [9] and in test [10] was over 100 µM throughout.
With `O=c1oc2ncccc2n1Cc1ccc([N+](=O)[O-])cc1`, the TGI in [1], in test [2], in test [3], in [4], in [5] and in [12] was over 100 µM throughout. For the same compound, the TGI in test [6], in test [7], in test [8], in [9], in [10] and in test [11] was over 100 µM in each case.
On to `O=C1/C(=C/c2ccc(O)cc2)NC(=S)N1CN1CCCCC1`, for which the TGI in test [1], in test [2], in test [4], in [5], in test [12] and in test [6] was over 100 µM each time. Further, the TGI in test [7] was over 100 µM; in [8] it was 56.4 µM; in test [9], over 100 µM; in test [10], over 100 µM; in test [11] it was over 100 µM.
For `O=C(Nc1ccc(Cl)cc1)c1cc(S(=O)(=O)Nc2n[nH]c(=O)[nH]2)c(SSc2cc(Cl)c(C(=O)Nc3ccc(Cl)cc3)cc2S(=O)(=O)Nc2n[nH]c(=O)[nH]2)cc1Cl`, the TGI in [1], in test [2], in test [4], in test [5], in [12] and in test [6] was over 100 µM each time. The TGI in test [7], in test [13], in test [8], in test [9], in test [10] and in test [11] was over 100 µM in each case.
On to `O=C(O)CC(NC(=O)C(F)(F)F)C(=O)NC1Cc2ccccc2OC1=O` (stereo not drawn), for which the TGI in test [1], in test [4], in [5], in [12], in test [6] and in [7] was over 100 µM each time. Besides, the TGI in test [13], in [9], in test [10] and in test [11] was over 100 µM throughout.
On to `COCCO`, for which the TGI in [1], in test [2], in [12], in [6], in [7] and in test [13] was over 100 µM throughout. For the same compound, the TGI in test [8], in test [9], in [10] and in test [11] was over 100 µM throughout.
Take `O=C1C(NS(=O)(=O)c2ccccc2)=C(n2cnc3ccccc32)C(=O)c2ccccc21`: the TGI in [1], in test [2], in [4], in test [5], in test [12] and in test [6] was over 100 µM in each case. Further, the TGI in [7] was over 100 µM; in test [13] it was over 100 µM; in test [8] it was over 100 µM; in test [9], 85 µM; in test [10] it was over 100 µM; in [11], over 100 µM.
As to `C#CCNC(=O)CCC(N)C(=O)O` (stereo not drawn), the TGI in test [1], in test [2], in [12], in test [6], in [7] and in [13] was over 100 µM each time. Moreover, the TGI in [8], in test [9], in test [10] and in [11] was over 100 µM each time.
Take `COC1/C=C\C=C(/C)C(=O)NC2=CC(=O)C=C(C2=O)C(OC)C(C)CC(OC)C(OC)C(C)/C=C(/C)C1OC(N)=O` (stereo not drawn): the TGI in test [1] turned out to be 16 µM; in test [2] it was 10.3 µM; in test [12], 20.1 µM; in test [6], 19 µM; in [7] it was 37 µM; in test [13], 15.9 µM. Besides, the TGI in [8] came out at 11.4 µM; in test [9], 31.6 µM; in [10], 32.4 µM; in test [11], 0.826 µM.
Turning to `CCN(CC)CCN1C(=O)c2cccc3c(-c4ccc5c(c4)ncn5C4CCCCC4)ccc(c23)C1=O`, the GI50 in test [3] is 1650 nM; in test [4], 1760 nM; in test [12], 1520 nM; in test [6], 1270 nM; in test [9], 1050 nM; in test [11], 1380 nM. Moreover, the TGI in test [3] stood at 6.22 µM; in test [4] it was 4.39 µM; in test [12], 3.2 µM; in [6] it was 2.78 µM; in [9] it was 2.4 µM; in test [11] it was 2.81 µM.
As for `Cc1ccc2nc3c(C(=O)NCCN(C)C)cccc3cc2c1`, the TGI in test [1] was 4.21 µM; in [2] it was 6.71 µM; in test [12], 12.6 µM; in test [6] it was 7.06 µM; in [7], 3.6 µM; in test [13], 14.8 µM. In addition, the TGI worked out at 3.25 µM in [8], 8.26 µM in test [9], 4 µM in test [10] and 4.58 µM in test [11].
Consider `CCCS(=O)(=O)O`, for which the TGI in test [1], in test [3], in test [4], in test [5], in test [12] and in [7] was over 100 µM throughout. In addition, the TGI in [8], in [9], in test [10] and in test [11] was over 100 µM each time.
On to `C=C1C(=O)OC2/C=C(\C)CC/C=C(/C)CC(OC(=O)/C(=C/CO)CO)C12` (stereo not drawn), for which the TGI in test [1] is 39.1 µM; in [4] it was 34.5 µM; in test [5], over 100 µM; in [12] it was over 100 µM; in test [13], 41.3 µM; in test [8], 33 µM. Besides, the TGI in test [9] was over 100 µM; in [10], over 100 µM; in test [11], 42.2 µM.
`NCCCNCCSSCc1ccccc1CSSCCNCCCN`: the TGI in [1], in test [4], in test [12], in test [6], in test [13] and in test [8] was over 100 µM throughout. Also, the TGI was 70 µM in [9], over 100 µM in test [10] and over 100 µM in test [11].
Regarding `CN1CCc2c(sc3nc(Nc4ccccc4)n(N)c(=O)c23)C1`, the TGI in test [1], in test [2], in test [3], in test [4], in [5] and in test [12] was over 100 µM in each case. The TGI in [6], in test [7], in test [8] and in test [10] was over 100 µM each time.
